Results published in patent US20080064760A1, “Spontaneously Dispersible Pharmaceutical Composition” (priority 2004, published 2008).
≈ marks a conversion by molar mass, not a printed value.

Columns and labels:
Log P in octanol = assay type: physicochemical
Protocol: (§1) The melting range of Compound I is from 120.5-151° C. In both Samples 4A and 4B, the drug loading is 4% or 20 mg/capsule.

Solubility of Compound I = assay type: physicochemical
Protocol: as §1

COC(=O)N[C@]1(C)Cc2ccc(NC(=O)c3cccc(C)c3-c3ccc(C(F)(F)F)cc3)cc2C1 [Compound I]
Log P in octanol (Log P in octanol): 4.66 | solubility (Solubility of Compound I): 0.17 µg/mL (≈ 0.352 µM)
